According to US4594329A, “CRF analogs” (The Salk Institute for Biological Studies, priority 1984, dated 1986):
Square brackets hold non-standard residues; d marks the D form. Peptide text beside a SMILES is read from it. * marks the point of attachment. hArg = N=C(N)NCCCC[C@H](N)C(=O)O; Nle = CCCC[C@H](N)C(=O)O; Orn = NCCC[C@H](N)C(=O)O; Bz = O=C(c1ccccc1)*

Experiments:
[1] = test system: cultured rat pituitary cells; assay: secretion of ACTH and β-endorphin by cultured rat pituitary cells; format: cell-based; conditions: general procedure of Example III; for secretion of ACTH and β-END-LI, amount relative to oCRF: % of oCRF
Description: (§1) The synthetic peptide AHC and oCRF were examined for their effects on the secretion of ACTH and β-endorphin in vitro and was also in vivo. The potency of synthetic oCRF to stimulate the secretion of ACTH and β-endorphin by cultured rat pituitary cells was measured using the procedure as generally set forth in Endocrinology, 91, 562 (1972). […] In vivo testing is carried out using the general procedure set forth in C. Rivier et al., Science, 218, 377 (1982).

[2] = lowering of blood pressure, in vivo testing; conditions: for lowering of blood pressure: general procedure of Example III
Description: as §1

Compound	secretion of ACTH and β-END-LI, amount relative to oCRF [1]	lowering of blood pressure [2]	stimulates the secretion of ACTH and β-END-LI [1]	lowering of blood pressure compared with rCRF ([2]; comparison with rCRF)
CCCC[C@H](NC(=O)[C@H](CCC(=O)O)NC(=O)[C@H](CC(C)C)NC(=O)[C@H](CCCC)NC(=O)[C@H](CCC(=O)O)NC(=O)[C@H](CCCNC(=N)N)NC(=O)[C@H](CC(C)C)NC(=O)[C@H](CC(C)C)NC(=O)[C@H](Cc1c[nH]cn1)NC(=O)[C@H](Cc1ccccc1)NC(=O)[C@@H](NC(=O)[C@H](CC(C)C)NC(=O)[C@H](CC(=O)O)NC(=O)[C@H](CC(C)C)NC(=O)[C@H](CO)NC(=O)[C@@H](NC(=O)[C@@H]1CCCN1C(=O)[C@H]1CCCN1)[C@@H](C)CC)[C@@H](C)O)C(=O)N[C@@H](C)C(=O)N[C@@H](CCCCN)C(=O)N[C@@H](C)C(=O)N[C@@H](CCC(=O)O)C(=O)N[C@@H](CCC(N)=O)C(=O)N[C@@H](CCC(=O)O)C(=O)N[C@@H](C)C(=O)N[C@@H](CCC(=O)O)C(=O)N[C@@H](CCC(N)=O)C(=O)N[C@@H](C)C(=O)N[C@@H](C)C(=O)N[C@@H](CC(C)C)C(=O)N[C@@H](CC(N)=O)C(=O)N[C@@H](CCCNC(=N)N)C(=O)N[C@@H](CC(C)C)C(=O)N[C@@H](CC(C)C)C(=O)N[C@@H](CC(C)C)C(=O)N[C@@H](CCC(=O)O)C(=O)N[C@@H](CCC(=O)O)C(=O)N[C@@H](C)C(N)=O [[D-Pro^4, Nle^18,21]-AHC(4-41)] (H-[dP]PISLDLTFHLLRE[Nle]LE[Nle]AKAEQEAEQAALNRLLLEEA-NH2)	about 160%	very significant lowering of blood pressure	–	–
H-SQEPPISLDLTFHLLRE[Nle]LE[Nle]AKAEQEAEQAALNRLLLEEA-NH2 [[Nle^18, 21]-AHC]	–	very significant lowering of blood pressure	stimulates the secretion of ACTH and β-END-LI	–
Ac-GEEPPISLDLTFHLLREVLEMARAEQLAQQAHLNRKLMEEI-NH2 [[Acetyl-Gly^1, Leu^33, Glu^40]-rCRF]	–	very significant lowering of blood pressure	stimulates the secretion of ACTH and β-END-LI	–
CCCC[C@H](NC(=O)[C@H](CCC(=O)O)NC(=O)[C@H](CCCNC(=N)N)NC(=O)[C@H](CC(C)C)NC(=O)[C@H](CC(C)C)NC(=O)[C@H](Cc1c[nH]cn1)NC(=O)[C@H](Cc1ccccc1)NC(=O)[C@@H](NC(=O)[C@H](CC(C)C)NC(=O)[C@H](CC(=O)O)NC(=O)[C@H](CC(C)C)NC(=O)[C@H](CO)NC(=O)[C@@H](NC(=O)[C@@H]1CCCN1C(=O)[C@@H]1CCCN1C(=O)[C@H](CCC(=O)O)NC(=O)[C@@H](N)CCC(N)=O)[C@@H](C)CC)[C@@H](C)O)C(=O)N[C@@H](CC(C)C)C(=O)N[C@@H](CCC(=O)O)C(=O)N[C@@H](CCSC)C(=O)N[C@H](C(=O)N[C@@H](CCCCN)C(=O)N[C@@H](C)C(=O)N[C@@H](CC(=O)O)C(=O)N[C@@H](CCC(N)=O)C(=O)N[C@@H](CC(C)C)C(=O)N[C@@H](C)C(=O)N[C@@H](CCC(N)=O)C(=O)N[C@@H](CCC(N)=O)C(=O)N[C@@H](C)C(=O)N[C@@H](Cc1c[nH]cn1)C(=O)N[C@@H](CO)C(=O)N[C@@H](CC(N)=O)C(=O)N[C@@H](CCCNC(=N)N)C(=O)N[C@@H](CCCCN)C(=O)N[C@@H](Cc1ccc(O)cc1)C(=O)N[C@@H](CC(C)C)C(=O)N[C@@H](CC(=O)O)C(=O)N[C@@H](CCC(=O)O)C(=O)N[C@@H](C)C(N)=O)[C@@H](C)O [[Nle^18,Tyr^37,Glu^40]-oCRF(2-41)] (H-QEPPISLDLTFHLLRE[Nle]LEMTKADQLAQQAHSNRKYLDEA-NH2)	–	very significant lowering of blood pressure	stimulates the secretion of ACTH and β-END-LI	–
H-SEEPPIS[Nle]DLSFHLLREVLEMARAEQLAQQAHLNRKLMEEI-NH2 [[Nle^8, Ser^11, Leu^33, Glu^40]-rCRF]	–	very significant lowering of blood pressure	stimulates the secretion of ACTH and β-END-LI	–
CC[C@H](C)[C@H](NC(=O)[C@H](CC(=O)O)NC(=O)[C@H](CC(C)C)NC(=O)[C@H](CC(C)C)NC(=O)[C@H](CCCCN)NC(=O)[C@H](CCCNC(=N)N)NC(=O)[C@H](CC(N)=O)NC(=O)[C@H](CO)NC(=O)[C@H](Cc1c[nH]cn1)NC(=O)[C@H](C)NC(=O)[C@H](CCC(N)=O)NC(=O)[C@H](CCC(N)=O)NC(=O)[C@H](C)NC(=O)[C@H](CC(C)C)NC(=O)[C@H](CCC(N)=O)NC(=O)[C@H](CC(=O)O)NC(=O)[C@H](C)NC(=O)[C@H](CCCCN)NC(=O)[C@H](CC(=O)O)NC(=O)[C@H](CCSC)NC(=O)[C@H](CCC(=O)O)NC(=O)[C@H](CC(C)C)NC(=O)[C@@H](NC(=O)[C@H](CCC(=O)O)NC(=O)[C@H](CCCNC(=N)N)NC(=O)[C@H](CC(C)C)NC(=O)[C@H](CC(C)C)NC(=O)[C@H](Cc1c[nH]cn1)NC(=O)[C@H](Cc1ccccc1)NC(=O)[C@@H](NC(=O)[C@H](CC(C)C)NC(=O)[C@H](CC(=O)O)NC(=O)[C@H](CC(C)C)NC(=O)[C@H](CO)NC(=O)[C@@H](NC(=O)[C@H]1CCCN1)[C@@H](C)CC)[C@@H](C)O)C(C)C)C(=O)N[C@@H](C)C(N)=O [[D-Pro^4,Asp^22]-oCRF(4-41)] (H-[dP]ISLDLTFHLLREVLEMDKADQLAQQAHSNRKLLDIA-NH2)	–	very significant lowering of blood pressure	stimulates the secretion of ACTH and β-END-LI	–
CCCC[C@H](NC(=O)[C@@H](NC(=O)[C@H](CC(C)C)NC(=O)[C@H](CC(=O)O)NC(=O)[C@H](CC(C)C)NC(=O)[C@H](CO)NC(=O)[C@@H](NC(=O)[C@@H]1CCCN1C(=O)[C@@H]1CCCN1C(=O)[C@H](CCC(=O)O)NC(=O)CNC(=O)c1ccccc1)[C@@H](C)CC)[C@@H](C)O)C(=O)N[C@@H](Cc1c[nH]cn1)C(=O)N[C@@H](CC(C)C)C(=O)N[C@@H](CC(C)C)C(=O)N[C@@H](CCCNC(=N)N)C(=O)N[C@@H](CCC(=O)O)C(=O)N[C@H](C(=O)N[C@@H](CC(C)C)C(=O)N[C@@H](CCC(=O)O)C(=O)N[C@@H](CCSC)C(=O)N[C@@H](C)C(=O)N[C@@H](CCCNC(=N)N)C(=O)N[C@@H](C)C(=O)N[C@@H](CCC(=O)O)C(=O)N[C@@H](CCC(N)=O)C(=O)N[C@@H](CC(C)C)C(=O)N[C@@H](C)C(=O)N[C@@H](CCC(=O)O)C(=O)N[C@@H](CCC(N)=O)C(=O)N[C@@H](C)C(=O)N[C@@H](Cc1c[nH]cn1)C(=O)N[C@@H](CO)C(=O)N[C@@H](CC(N)=O)C(=O)N[C@@H](CCCNC(=N)N)C(=O)N[C@@H](CCCNC(=N)N)C(=O)N[C@@H](CC(C)C)C(=O)N[C@@H](CCSC)C(=O)N[C@@H](CCC(=O)O)C(=O)N[C@H](C(=O)N[C@H](C(N)=O)[C@@H](C)CC)[C@@H](C)CC)C(C)C (Bz-GEPPISLDLT[Nle]HLLREVLEMARAEQLAEQAHSNRRLMEII-NH2)	–	very significant lowering of blood pressure	stimulates the secretion of ACTH and β-END-LI	–
H-PPISLDLTFHLLREVLEMARAEQLAQQAHLNRKLMEQI-NH2	–	very significant lowering of blood pressure	stimulates the secretion of ACTH and β-END-LI	–
H-SQEPPISLDLTFHLLREVLEMTRADQLAQQAHSNRRLLDIA-NH2 [[Arg^23,36]-oCRF]	about 370%	very significant lowering of blood pressure	–	–
CC[C@H](C)[C@H](NC(=O)[C@@H]1CCCN1C(=O)[C@@H]1CCCN1)C(=O)N[C@@H](CO)C(=O)N[C@@H](CC(C)C)C(=O)N[C@@H](CC(=O)O)C(=O)N[C@@H](CC(C)C)C(=O)N[C@H](C(=O)N[C@@H](CC(C)C)C(=O)N[C@@H](Cc1c[nH]cn1)C(=O)N[C@@H](CC(C)C)C(=O)N[C@@H](CC(C)C)C(=O)N[C@@H](CCCNC(=N)N)C(=O)N[C@@H](CCC(=O)O)C(=O)N[C@@H](CCSC)C(=O)N[C@@H](CC(C)C)C(=O)N[C@@H](CCC(=O)O)C(=O)N[C@@H](CCSC)C(=O)N[C@@H](CCC(=O)O)C(=O)N[C@@H](CCCN)C(=O)N[C@@H](C)C(=O)N[C@@H](CCC(=O)O)C(=O)N[C@@H](CCC(N)=O)C(=O)N[C@@H](CCC(=O)O)C(=O)N[C@@H](C)C(=O)N[C@@H](CCC(=O)O)C(=O)N[C@@H](CCC(N)=O)C(=O)N[C@@H](C)C(=O)N[C@@H](C)C(=O)N[C@@H](CC(C)C)C(=O)N[C@@H](CC(N)=O)C(=O)N[C@@H](CCCNC(=N)N)C(=O)N[C@@H](CCCCNC(=N)N)C(=O)N[C@@H](CC(C)C)C(=O)N[C@@H](CC(C)C)C(=O)N[C@@H](CCC(=O)O)C(=O)N[C@@H](CCC(=O)O)C(=O)N[C@@H](C)C(N)=O)[C@@H](C)O (H-PPISLDLTLHLLREMLEME[Orn]AEQEAEQAALNR[hArg]LLEEA-NH2)	–	very significant lowering of bloood pressure	stimulates the secretion of ACTH and β-END-LI	–
H-SEEPPISLELTFHLLREVLE[Nle]ARAEQLAEQAHLNRKLMEII-NH2 [[Glu^9, Nle^21, Glu^29, Leu^33]-rCRF]	–	very significant lowering of blood pressure	stimulates the secretion of ACTH and β-END-LI	to a greater extent than rCRF
